# Key:
# [1] = in phosphate buffer pH 6.8 + 0.003% Tween 80, 10% methanol, 25 °C
# [2] = Moisture sorption isotherm (DVS); type: physicochemical; settings: between 10 to 90 % RH, RH step of 5% RH
# Procedure: The moisture sorption isotherms were recorded with a SPS-11 moisture sorption analyzer (MD Messtechnik, Ulm, Germany). […] The equilibrium condition for each step was set to a mass constancy of ±0.002 % over 40 min.
time of transformation to vorasidenib dihydrate [1],DVS water content [2],SMILES
ten,–,CC(Nc1nc(NC(C)C(F)(F)F)nc(-c2cccc(Cl)n2)n1)C(F)(F)F.O=C(O)CC(=O)O (centres unmarked) [Vorasidenib malonic acid cocrystal]
–,not more than 2.0 % by weight,C[C@@H](Nc1nc(N[C@H](C)C(F)(F)F)nc(-c2cccc(Cl)n2)n1)C(F)(F)F.C[C@@H](Nc1nc(N[C@H](C)C(F)(F)F)nc(-c2cccc(Cl)n2)n1)C(F)(F)F.O.O=C(O)/C=C/C(=O)O [vorasidenib fumaric acid cocrystal]

# — patent EP4538262A1, “COCRYSTALS OF VORASIDENIB” (SANDOZ AG, priority 2023, dated 2025)
